What was measured:
MV4‐11 cells = assay: Cell viability endpoint assay (Celltiter Blue, 72 h); assay type: cell-based; conditions: for IC50: Homo sapiens, MV4-11, mean±SD from two independent experiments
Procedure: Cell lines. MV4‐11 (ACC 102), Jurkat (ACC 282) and THP‐1 (ACC 16) cells were obtained from DSMZ and maintained at 37 °C and 5 % CO2 at densities between 0.2–1×10^6 cells per mL in RMPI‐1640 medium supplemented with 10 % FBS, L‐glutamine (2 mM) and penicillin/streptomycin.
Cell viability endpoint assay. For the determination of cytotoxicity of proteasome inhibitors 50.000 cells per well were plated in 90 μl RPMI‐1640 medium supplemented with 0.1 % FBS and incubated overnight at 37 °C and 5 % CO2. Inhibitors were serially diluted in RPMI‐1640 medium as 10‐fold stocks and added to cells giving the final concentration (1 nM to 10 μM, Figure S2–S4) and incubated for 72 h at 37 °C and 5 % CO2. Cell viability was determined using the Celltiter Blue assay (Promega) by adding 20 μl of reagent, incubation for 120 minutes at 37 °C and 5 % CO2 and fluorescent read‐out using a Tecan M1000 microplate reader. Dose‐response curves were fitted to the equation “Y=Bottom+(Top‐Bottom)/(1+10^(X−L°^gIC50))” using GraphPad Prism 7.02. IC50 values are determined from technical triplicates as mean value of two independent experiments. Standard deviations (Table S1) as well as dose response curves (SI chapter 2b) are given in the supplementary information.

[1] = biological target: T1, β2c subunit of isolated human 20S proteasome (Homo sapiens, UniProt Q99436); assay: Proteasome inhibition assay (20 S Proteasome Assay Kit, Bz‐VGR‐AMC); assay type: biochemical; conditions: c = 1 µM, n=1; read-out: Inhibition cCP β2
T1 construct: purchased Enzo Life Sciences
Procedure: (§1) Proteasome inhibition assay. Bortezomib (Selleckchem) and carfilzomib (MedChemExpress) were purchased and used without further purification. The 20 S Proteasome Assay Kit for Drug Discovery was used according to the supplier's protocol using Suc‐LLVY‐AMC (β5), Bz‐VGR‐AMC (β2) or Z‐LLE‐AMC (β1) as substrates (Enzo Life Sciences). Single point measurements of residual activity of proteasome activity were performed at a final concentration of 100 nM (n=3, β5c, β5i) or 1 μM (n=1, β1c, β2c, β5c, β5i, SI chapter 2a, Table S1). […] Inhibitors were prepared in 2‐fold concentration (cfinal=100 nM) and added to proteasomes (mfinal=200 ng/well). After 30 min incubation, substrate was added (cfinal=100 μM), incubated for 60 minutes and fluorescence was read using a Tecan M1000 microplate reader. Dose‐response curves were fitted to the equation Y=100/(1+10^((L°^gIC50−X)*HillSl°^pe)) using GraphPad Prism 7.02. IC50 values were determined from technical duplicates as mean value of three independent experiments.

[2] = biological target: T2, β1c subunit of isolated human 20S proteasome (Homo sapiens, UniProt P28072); assay: Proteasome inhibition assay (20 S Proteasome Assay Kit, Z‐LLE‐AMC); assay type: biochemical; conditions: c = 1 µM, n=1; read-out: Inhibition cCP β1
T2 construct: purchased Enzo Life Sciences
Procedure: as §1, with “Bortezomib (Selleckchem) and carfilzomib (MedChemExpress) were purchased and used without further purification.” left out, “Dose‐response curves were fitted to the equation Y=100/(1+10^((L°^gIC50−X)*HillSl°^pe)) using GraphPad Prism 7.02.” left out

[3] = biological target: T3, β5c subunit of isolated human 20S proteasome (Homo sapiens, UniProt P28074); assay: Proteasome inhibition assay (20 S Proteasome Assay Kit, Suc‐LLVY‐AMC); assay type: biochemical; conditions: for inhibition at 1 µM: c = 1 µM, n=1, read-out: Inhibition cCP β5; for inhibition at 0.1 µM: c=100 nM, read-out: Rel. Inhibition β5c
T3 construct: purchased Enzo Life Sciences
Procedure: as §1, with “Bortezomib (Selleckchem) and carfilzomib (MedChemExpress) were purchased and used without further purification.” left out, “Dose‐response curves were fitted to the equation Y=100/(1+10^((L°^gIC50−X)*HillSl°^pe)) using GraphPad Prism 7.02.” left out

[4] = biological target: T4, β5i subunit of isolated human 20S proteasome (Homo sapiens, UniProt P28062); assay: as above; assay type: biochemical; conditions: for inhibition at 1 µM: c = 1 µM, n=1, read-out: Inhibition iCP β5; for inhibition at 0.1 µM: c=100 nM, read-out: Rel. Inhibition β5i
T4 construct: purchased Enzo Life Sciences
Procedure: as §1, with “Bortezomib (Selleckchem) and carfilzomib (MedChemExpress) were purchased and used without further purification.” left out, “Dose‐response curves were fitted to the equation Y=100/(1+10^((L°^gIC50−X)*HillSl°^pe)) using GraphPad Prism 7.02.” left out

Structure (SMILES)	IC50 (MV4‐11 cells) [nM]	inhibition at 1 µM [1] [%]	inhibition at 1 µM [2] [%]	inhibition at 1 µM [3] [%]	inhibition at 0.1 µM [3] [%]	inhibition at 1 µM [4] [%]	inhibition at 0.1 µM [4] [%]	IC50 MV4‐11 (MV4‐11 cells; mean±SD from two independent experiments)
CC(C)C[C@H](NC(=O)OCc1ccccc1)C(=O)N[C@@H](CC(=O)OC(C)(C)C)C(=O)N[C@@H](CC(C)C)C(=O)C(=O)Nc1cccc(Oc2ccccc2)c1 [Compound 19, tert ‐Butyl‐(S)‐3‐((S)‐2‐(((benzyloxy)carbonyl)amino)‐4‐methylpentanamido)‐4‐(((S)‐5‐methyl‐1,2‐dioxo‐1‐((3‐phenoxyphenyl)amino)hexan‐3‐yl)amino)‐4‐oxobutanoate]	36 ± 5	9	-15	84	53	31	43	
CC(C)C[C@H](NC(=O)OCc1ccccc1)C(=O)N[C@@H](CC(=O)OC(C)(C)C)C(=O)N[C@@H](CC(C)C)C(=O)C(=O)Nc1ccc(Oc2ccccc2)cc1 [Compound 20, tert ‐Butyl‐(S)‐3‐((S)‐2‐(((benzyloxy)carbonyl)amino)‐4‐methylpentanamido)‐4‐(((S)‐5‐methyl‐1,2‐dioxo‐1‐((4‐phenoxyphenyl)amino)hexan‐3‐yl)amino)‐4‐oxobutanoate]	68 ± 9	-7	-24	38	41	22	40	
Cc1cc(C)c(Oc2ccccc2)cc1NC(=O)C(=O)[C@H](CC(C)C)NC(=O)[C@H](CC(=O)OC(C)(C)C)NC(=O)[C@H](CC(C)C)NC(=O)OCc1ccccc1 [Compound 21, tert ‐Butyl(S)‐3‐((S)‐2‐(((benzyloxy)carbonyl)amino)‐4‐methylpentanamido)‐4‐(((S)‐1‐((2,4‐dime‐thyl‐5‐phenoxyphenyl)amino)‐5‐methyl‐1,2‐dioxohexan‐3‐yl)amino)‐4‐oxobutanoate]	297 ± 27	11	-4	52	33	17		
CC(C)C[C@@H](C=O)NC(=O)[C@H](CC(C)C)NC(=O)[C@H](CC(C)C)NC(=O)c1cnccn1 [Compound 23, N ‐((S)‐4‐Methyl‐1‐(((S)‐4‐methyl‐1‐(((S)‐4‐methyl‐1‐oxopentan‐2‐yl)amino)‐1‐oxopentan‐2‐yl)amino)‐1‐oxopentan‐2‐yl)pyrazine‐2‐carboxamide]	145 ± 23	49	19	75	30	64	4	
CC(C)C[C@@H](C=O)NC(=O)[C@H](CC(=O)OC(C)(C)C)NC(=O)[C@H](CC(C)C)NC(=O)c1cc(Cl)ccc1Cl [Compound 25, tert ‐Butyl (S)‐3‐((S)‐2‐(2,5‐dichlorobenzamido)‐4‐methylpentanamido)‐4‐(((S)‐4‐methyl‐1‐oxopen‐tan‐2‐yl)amino)‐4‐oxobutanoate]	28 ± 5	10	9	90	64	75	38	
Cc1cc(C)c(Oc2ccccc2)cc1NC(=O)C(=O)[C@H](CC(C)C)NC(=O)[C@H](CC(=O)OC(C)(C)C)NC(=O)[C@H](CC(C)C)NC(=O)c1cc(Cl)ccc1Cl [Compound 29, tert ‐Butyl (S)‐3‐((S)‐2‐(2,5‐dichlorobenzamido)‐4‐methylpentanamido)‐4‐(((S)‐1‐((2,4‐dimethyl‐5‐phenoxyphenyl)amino)‐5‐methyl‐1,2‐dioxohexan‐3‐yl)amino)‐4‐oxobuta‐noate]	58 ± 10	-4	-19	53	26	-1	8	

Next, values leading:

IC50 (MV4‐11 cells) [nM]	inhibition at 1 µM [1] [%]	inhibition at 1 µM [2] [%]	inhibition at 1 µM [3] [%]	inhibition at 0.1 µM [3] [%]	inhibition at 1 µM [4] [%]	inhibition at 0.1 µM [4] [%]	IC50 MV4‐11 (MV4‐11 cells; mean±SD from two independent experiments)	Structure (SMILES)
> 1000	-10	28	43	6	28	11	inactive	CC(C)C[C@@H](C=O)NC(=O)[C@H](CC(C)C)NC(=O)[C@H](CC(C)C)NC(=O)Cn1cnc2ccccc2c1=O [Compound 22, (S)‐4‐Methyl‐N‐((S)‐4‐methyl‐1‐(((S)‐4‐methyl‐1‐oxopentan‐2‐yl)amino)‐1‐oxopentan‐2‐yl)‐2‐(2‐(4‐oxoquinazolin‐3(4H)‐yl)acetamido)pentanamide]
16 ± 1	26	13	94	76	89	60		CC(C)C[C@@H](C=O)NC(=O)[C@H](CC(C)C)NC(=O)[C@H](CC(C)C)NC(=O)c1cc(Cl)ccc1Cl [Compound 24, 2,5‐Dichloro‐N‐((S)‐4‐methyl‐1‐(((S)‐4‐methyl‐1‐(((S)‐4‐methyl‐1‐oxopentan‐2‐yl)‐amino)‐1‐oxo‐pentan‐2‐yl)amino)‐1‐oxopentan‐2‐yl)benzamide]
25 ± 5	17	-38	51	25	24	4		Cc1ccc(NC(=O)C(=O)[C@H](CC(C)C)NC(=O)[C@H](CC(C)C)NC(=O)[C@H](CC(C)C)NC(=O)c2cc(Cl)ccc2Cl)c(C)c1 [Compound 26, 2,5‐Dichloro‐N‐((S)‐1‐(((S)‐1‐(((S)‐1‐((2,4‐dimethylphenyl)amino)‐5‐methyl‐1,2‐dioxohexan‐3‐yl)amino)‐4‐methyl‐1‐oxopentan‐2‐yl)amino)‐4‐methyl‐1‐oxopentan‐2‐yl)‐benzamide]
47 ± 5	6	-10	81	26	52	35		Cc1ccc(NC(=O)C(=O)[C@H](CC(C)C)NC(=O)[C@H](CC(=O)OC(C)(C)C)NC(=O)[C@H](CC(C)C)NC(=O)c2cc(Cl)ccc2Cl)c(C)c1 [Compound 28, tert ‐Butyl (S)‐3‐((S)‐2‐(2,5‐dichlorobenzamido)‐4‐methylpentanamido)‐4‐(((S)‐1‐((2,4‐dimethyl‐phenyl)amino)‐5‐methyl‐1,2‐dioxohexan‐3‐yl)amino)‐4‐oxobutanoate]
